Assay results from patent publication US20210330611A1, “THERAPY FOR NEUROLOGICAL DISEASES/DISORDERS” (priority 2020, published 2021).
Counter-ions that a name gives are not always drawn. Like-named read-outs stand apart in the source and are kept apart here.

How the values were obtained:
[1] = tested on: fibrin-induced microglia activation; assay: Image-based assay of fibrin-induced microglia activation (HTS and dose response); type: cell-based, rat; settings: for inhibition at 10 µM: Rattus norvegicus, Microglia, read-out: Fibrin % inhibition
primary rat microglia [2] = tested on: primary rat microglia;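 for Fibrin % cell toxicity: share of dead cells sized under 150 µm2 at 10 µM in fibrin-stimulated microglia HTS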
[3] = tested on: LPS-induced microglia activation; assay: Image-based assay of LPS-induced microglia activation (HTS and dose response); type: cell-based, rat
primary rat microglia [4] = tested on: primary rat microglia; remark: listed apart in the source;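 for Fibrin % cell toxicity: share of dead cells sized under 150 µm2 at 10 µM in fibrin-stimulated microglia HTS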
[5] = tested on: fibrin- and LPS-induced microglia activation; assay: cells; type: cell-based, rat
[6] = primary HTS, 10 μM, fibrin-stimulated primary microglia
[7] = Rattus norvegicus, Microglia, primary HTS, 10 μM, LPS-stimulated primary microglia; read-out: LPS % inhibition
[8] = primary microglia HTS, fibrin stimulation, activation = cell size >800 μm2
[9] = Rattus norvegicus, Microglia, 48 h, primary microglia HTS, LPS stimulation, activation = cell size >800 μm2; read-out: LPS % inhibition
[10] = quadrant by fibrin and LPS inhibition in HTS of 1907 compounds
[11] = primary microglia HTS, fibrin stimulation, cell size >800 μm2 as marker of activation
[12] = classification by fibrin and LPS inhibition in HTS
[13] = primary microglia HTS, fibrin stimulation, compounds at 10 μM
[14] = Rattus norvegicus, Microglia, primary microglia HTS, LPS stimulation, compounds at 10 μM; read-out: LPS % inhibition
[15] = quadrant by fibrin and LPS inhibition, HTS at 10 μM
[16] = Rattus norvegicus, Microglia, read-out: LPS % inhibition

CCOc1ccc(NC(=O)CC(C)O)cc1 (centres unmarked) [Bucetin]
inhibition at 10 µM [1, 6]: -25% | LPS % cell toxicity (primary rat microglia [2]; rat): 0% | inhibition at 10 µM [3, 7]: 12% | Fibrin % cell toxicity (primary rat microglia [4]; rat): 0% | Quadrant (FIG. 5b) ([5]; primary HTS, 10 μM): Q4

CN(CCOc1ccc(CC2SC(=O)NC2=O)cc1)c1ccccn1 (centres unmarked) [Rosiglitazone, Rosiglitazone Maleate]
Fibrin % inhibition [1]: 5% | LPS % cell toxicity (primary rat microglia [2]): 1% | LPS % inhibition [3]: 20% | Fibrin % cell toxicity (primary rat microglia [4]): 1% | Quadrant (FIG. 5b) [5]: Q4

CC(C)(C)NC[C@H](O)c1ccc(O)c(CO)c1 [Levosalbutamol]
inhibition at 10 µM [1, 8]: -29% | LPS % cell toxicity (primary rat microglia [2]; rat): 0% | inhibition at 10 µM [3, 9]: 11% | Fibrin % cell toxicity (primary rat microglia [4]; rat): 0% | Quadrant (FIG. 5b) [5, 10]: Q4

CCOc1ccccc1OC(c1ccccc1)C1CNCCO1.CS(=O)(=O)O (centres unmarked) [Reboxetine Mesylate]
Fibrin % inhibition [1, 11]: −33% | LPS % cell toxicity (primary rat microglia [2]): 0% | LPS % inhibition ([3]; primary microglia HTS, LPS stimulation, cell size >800 μm2 as marker of activation): 8% | Fibrin % cell toxicity (primary rat microglia [4]): 1% | Quadrant (FIG. 5b) [5, 12]: Q4

CCCC(=O)Nc1ccc(OCC(O)CNC(C)C)c(C(C)=O)c1 (centres unmarked) [Acebutolol]
inhibition at 10 µM [1, 13]: -11% | LPS % cell toxicity (primary rat microglia [2]; rat): 0% | inhibition at 10 µM [3, 14]: 19% | Fibrin % cell toxicity (primary rat microglia [4]; rat): 1% | Quadrant (FIG. 5b) [5, 15]: Q4

CN(C)[C@@H]1C(O)=C(C(N)=O)C(=O)[C@@]2(O)C(O)=C3C(=O)c4c(O)cccc4[C@@](C)(O)[C@H]3[C@H](O)[C@@H]12 [Oxytetracycline]
inhibition at 10 µM ([1]; primary microglia HTS, fibrin stimulation, increased cell size (>800 μm^2) as marker of activation): 0% | LPS % cell toxicity (primary rat microglia [2]; rat): 0% | inhibition at 10 µM ([3]; Rattus norvegicus, Microglia, 48 h, primary microglia HTS, LPS stimulation; increased cell size (>800 μm^2) as marker of activation; read-out: LPS % inhibition): 10% | Fibrin % cell toxicity (primary rat microglia [4]; rat): 1% | Quadrant (FIG. 5b) [5, 10]: Q4

CC(C)(C)NC[C@H](O)COc1ccccc1C1CCCC1 [Penbutolol]
inhibition at 10 µM [1, 11]: -8% | LPS % cell toxicity (primary rat microglia [2]; rat): 0% | inhibition at 10 µM ([3]; Rattus norvegicus, Microglia, 48 h; read-out: LPS % inhibition): 17% | Fibrin % cell toxicity (primary rat microglia [4]; rat): 1% | Quadrant (FIG. 5b) [5, 12]: Q4

Nc1ccn([C@@H]2O[C@H](CO)[C@@H](O)[C@@H]2O)c(=O)n1 [Cytarabine]
inhibition at 10 µM [1, 13]: -19% | LPS % cell toxicity (primary rat microglia [2]; rat): 0% | inhibition at 10 µM [3, 14]: 14% | Fibrin % cell toxicity (primary rat microglia [4]; rat): 0% | Quadrant (FIG. 5b) ([5]; classification by fibrin and LPS inhibition, HTS at 10 μM): Q4

Cc1cc(=O)oc2cc(O)ccc12 [7-hydroxy-4-methyl-2H-chromen-2-one]
inhibition at 10 µM [1, 13]: 12% | LPS % cell toxicity (primary rat microglia [2]; rat): 0% | inhibition at 10 µM [3, 14]: 4% | Fibrin % cell toxicity (primary rat microglia [4]; rat): 0% | Quadrant (FIG. 5b) [5, 15]: Q4

Cc1c(C)c2c(c(C)c1O)CCC(C)(CCCC(C)CCCC(C)CCCC(C)C)O2 (stereo not drawn) [Alpha-tochopherol]
Fibrin % inhibition [1, 13]: 18% | LPS % cell toxicity (primary rat microglia [2]): 0% | LPS % inhibition ([3]; primary microglia HTS, LPS stimulation, compounds at 10 μM): 21% | Fibrin % cell toxicity (primary rat microglia [4]): 0% | Quadrant (FIG. 5b) [5, 15]: Q4

CC(=O)Oc1ccc(C(c2ccc(OC(C)=O)cc2)c2ccccn2)cc1 [Bisacodyl]
inhibition at 10 µM [1, 6]: 10% | LPS % cell toxicity (primary rat microglia [2]; rat): 0% | inhibition at 10 µM [3, 7]: 8% | Fibrin % cell toxicity (primary rat microglia [4]; rat): 0% | Quadrant (FIG. 5b) ([5]; primary HTS, 10 μM): Q4

N=C(N)c1ccc(OCCCCCOc2ccc(C(=N)N)cc2)cc1 [Pentamidine]
inhibition at 10 µM [1]: 6% | LPS % cell toxicity (primary rat microglia [2]; rat): 1% | inhibition at 10 µM ([3]; Rattus norvegicus, Microglia, 48 h, read-out: LPS % inhibition): 33% | Fibrin % cell toxicity (primary rat microglia [4]; rat): 1% | Quadrant (FIG. 5b) [5]: Q4

Clc1ccc2nsnc2c1NC1=NCCN1 [Tizanidine]
inhibition at 10 µM [1]: 2% | LPS % cell toxicity (primary rat microglia [2]; rat): 1% | inhibition at 10 µM [3, 16]: 2% | Fibrin % cell toxicity (primary rat microglia [4]; rat): 1% | Quadrant (FIG. 5b) [5]: Q4

CC(C)NNC(=O)c1ccncc1 [Iproniazid]
inhibition at 10 µM [1, 8]: -44% | LPS % cell toxicity (primary rat microglia [2]; rat): 0% | inhibition at 10 µM [3, 9]: 10% | Fibrin % cell toxicity (primary rat microglia [4]; rat): 1% | Quadrant (FIG. 5b) [5, 10]: Q4

O=c1[nH]c(=O)n([C@H]2C[C@H](O)[C@@H](CO)O2)cc1C(F)(F)F [Trifluridine]
inhibition at 10 µM ([1]; primary microglia HTS, 10 μM, fibrin-stimulated, cell size >800 μm^2 as marker of activation): 10% | LPS % cell toxicity (primary rat microglia [2]; rat): 1% | inhibition at 10 µM ([3]; Rattus norvegicus, Microglia, primary microglia HTS, 10 μM, LPS-stimulated, cell size >800 μm^2 as marker of activation; read-out: LPS % inhibition): 16% | Fibrin % cell toxicity (primary rat microglia [4]; rat): 1% | Quadrant (FIG. 5b) ([5]; HTS of 1907 compounds, quadrant by fibrin and LPS inhibition): Q4

CCCCNC(=O)NS(=O)(=O)c1ccc(C)cc1 [Tolbutamide]
inhibition at 10 µM [1]: 31% | LPS % cell toxicity (primary rat microglia [2]; rat): 0% | inhibition at 10 µM [3, 16]: 24% | Fibrin % cell toxicity (primary rat microglia [4]; rat): 1% | Quadrant (FIG. 5b) [5]: Q4
